The values that follow are results of earlier work, collected in patent US6864048B2, “Factorial chemical libraries” (Affymetrix, Inc., priority 1993, dated 2005).

This data set has as its target antibody. The settings on record: binding to the antibody; peptide identified by recursive retrosynthesis of a hexapeptide library.

Turning to DVPYDA, the equilibrium dissociation constant (Kd) – broadly, the constant that tells how readily two partners part at equilibrium – is 30 nM.
